Measurements published in US9708314B2, “Heterocyclic amide compound” (NISSAN CHEMICAL INDUSTRIES, LTD., priority 2013, dated 2017).

Experiments:
Type in all cases: in vivo
Monochoria vaginalis [1] = test: Test Example 2: herbicidal activity, application during weed generation in submerged conditions; conditions: Eighteenth Table; application herbicide amount 320 g/ha
In short: (§1)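 Seeds were sown together in alluvial soil kept under 4 cm of water and grown at 25 °C to 30 °C. Once plants reached the one- to two-leaf stage, the diluted emulsion was applied to the water surface at a predetermined g/ha amount, and effects were rated 0–5 after three weeks.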

[2] = system: Echinochloa oryzacola Vasing.; test: as above; conditions: Eighteenth Table; application herbicide amount 320 g/ha
In short: as §1

Scirpus juncoides [3] = test: as above; conditions: Eighteenth Table; application herbicide amount 320 g/ha
In short: as §1

[4] = system: directly sowed Oryza sativa; test: Test Example 3: effect on crop by application to foliage (Wagner pot, water depth 0.1-0.5 cm); conditions: Nineteenth Table, application to foliage
In short: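 Three weeks after spraying, each species was graded 0–5 for herbicidal ratio, 5 being 90% or more. Application: water-diluted emulsifiable concentrate at a fixed g/ha to foliage of 14-day-old greenhouse (25–30 °C) plants in alluvial soil.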

Monochoria vaginalis [5] = test: Test Example 1: herbicidal activity, application before weed generation in submerged conditions; conditions: Seventeenth Table; for C: Monochoria vaginalis (herbicidal effect grade): Application herbicide amount 320 g/ha; for C (Monochoria vaginalis) herbicidal ratio grade: application herbicide amount 320 g/ha
In short: (§2)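 Water-diluted emulsion formulation is applied onto flood water (4 cm deep) covering alluvial soil on the day weed seeds are sown, after transplanting 2.5 leaf stage rice. Rates are expressed per hectare. Injury or control is graded 0–5 three weeks later.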

[6] = system: Echinochloa oryzacola Vasing.; test: as above; conditions: Seventeenth Table; for A: Echinochloa oryzicola Vasing. (herbicidal effect grade): Application herbicide amount 320 g/ha; for A (Echinochloa oryzicola Vasing.) herbicidal ratio grade: application herbicide amount 320 g/ha
In short: as §2

Scirpus juncoides [7] = test: as above; conditions: Seventeenth Table; for B: Scirpus juncoides (herbicidal effect grade): Application herbicide amount 320 g/ha; for B (Scirpus juncoides) herbicidal ratio grade: application herbicide amount 320 g/ha
In short: as §2

[8] = system: transplanted Oryza sativa; test: Test Example 1: effect on crop, application before weed generation in submerged conditions; conditions: Seventeenth Table; for a: transplanted Oryza sativa (effect on crop grade): Application herbicide amount 320 g/ha; for a (transplanted Oryza sativa) effect on crop grade: application herbicide amount 320 g/ha
In short: as §2

[9] = application herbicide amount 320 g/ha

SMILES | C (Monochoria vaginalis) herbicidal ratio grade (Monochoria vaginalis [1]) | A (Echinochloa oryzicola Vasing.) herbicidal ratio grade [2] | B (Scirpus juncoides) herbicidal ratio grade (Scirpus juncoides [3]) | b (effect on crop grade) [4, 9] | C: Monochoria vaginalis (herbicidal effect grade) (Monochoria vaginalis [5]) | A: Echinochloa oryzicola Vasing. (herbicidal effect grade) [6] | B: Scirpus juncoides (herbicidal effect grade) (Scirpus juncoides [7]) | a: transplanted Oryza sativa (effect on crop grade) [8] | C (Monochoria vaginalis) herbicidal ratio grade (Monochoria vaginalis [5]) | A (Echinochloa oryzicola Vasing.) herbicidal ratio grade [6] | B (Scirpus juncoides) herbicidal ratio grade (Scirpus juncoides [7]) | a (transplanted Oryza sativa) effect on crop grade [8] | b (effect on crop grade) ([4]; application herbicide amount 200 g/ha)
Cn1nnnc1NC(=O)c1ccc(C(F)(F)F)n2c(CCS(C)(=O)=O)nnc12 [2-059] | 4 (Herbicidal ratio of 70% or more and less than 90%) | 4 (Herbicidal ratio of 70% or more and less than 90%) | 3 (Herbicidal ratio of 40% or more and less than 70%) | 5 (Herbicidal ratio of 90% or more (almost completely withered)) | 4 (Herbicidal ratio of 70% or more and less than 90%) | 4 (Herbicidal ratio of 70% or more and less than 90%) | 4 (Herbicidal ratio of 70% or more and less than 90%) | 5 (Herbicidal ratio of 90% or more (almost completely withered)) |  |  |  |  | 
CCCS(=O)(=O)c1nnc2c(C(=O)Nc3nnnn3C)ccc(C(F)(F)F)n12 [2-070] | 5 (Herbicidal ratio of 90% or more (almost completely withered)) | 5 (Herbicidal ratio of 90% or more (almost completely withered)) | 5 (Herbicidal ratio of 90% or more (almost completely withered)) | 3 (Herbicidal ratio of 40% or more and less than 70%) | 5 (Herbicidal ratio of 90% or more (almost completely withered)) | 5 (Herbicidal ratio of 90% or more (almost completely withered)) | 5 (Herbicidal ratio of 90% or more (almost completely withered)) | 4 (Herbicidal ratio of 70% or more and less than 90%) |  |  |  |  | 
COc1cccc(-c2nnc3c(C(=O)Nc4nnnn4C)ccc(C(F)(F)F)n23)c1 [2-044] | 4 (Herbicidal ratio of 70% or more and less than 90%) | 5 (Herbicidal ratio of 90% or more (almost completely withered)) | 4 (Herbicidal ratio of 70% or more and less than 90%) | 5 (Herbicidal ratio of 90% or more (almost completely withered)) | 5 (Herbicidal ratio of 90% or more (almost completely withered)) | 5 (Herbicidal ratio of 90% or more (almost completely withered)) | 5 (Herbicidal ratio of 90% or more (almost completely withered)) | 4 (Herbicidal ratio of 70% or more and less than 90%) |  |  |  |  | 
Cn1nnnc1NC(=O)c1ccc(C(F)(F)F)n2c(N3CCSCC3)nnc12 [2-078] | 3 (Herbicidal ratio of 40% or more and less than 70%) | 4 (Herbicidal ratio of 70% or more and less than 90%) | 4 (Herbicidal ratio of 70% or more and less than 90%) | 4 (Herbicidal ratio of 70% or more and less than 90%) | 2 (Herbicidal ratio of 20% or more and less than 40%) | 5 (Herbicidal ratio of 90% or more (almost completely withered)) | 4 (Herbicidal ratio of 70% or more and less than 90%) | 4 (Herbicidal ratio of 70% or more and less than 90%) |  |  |  |  | 
Cc1ccc(-c2nnc3c(C(=O)Nc4nnnn4C)ccc(C(F)(F)F)n23)cc1 [2-042] | 4 (Herbicidal ratio of 70% or more and less than 90%) | 4 (Herbicidal ratio of 70% or more and less than 90%) | 3 (Herbicidal ratio of 40% or more and less than 70%) | 5 (Herbicidal ratio of 90% or more (almost completely withered)) | 4 (Herbicidal ratio of 70% or more and less than 90%) | 5 (Herbicidal ratio of 90% or more (almost completely withered)) | 4 (Herbicidal ratio of 70% or more and less than 90%) | 5 (Herbicidal ratio of 90% or more (almost completely withered)) |  |  |  |  | 
CC(C)c1nc2c(C(=O)Nc3nnnn3C)ccc(C(F)(F)F)n2n1 [7-002] | 2 (Herbicidal ratio of 20% or more and less than 40%) | 4 (Herbicidal ratio of 70% or more and less than 90%) | 2 (Herbicidal ratio of 20% or more and less than 40%) | 0 (Herbicidal ratio of 5% or less (almost no effect)) |  |  |  |  | 4 (Herbicidal ratio of 70% or more and less than 90%) | 3 (Herbicidal ratio of 40% or more and less than 70%) | 3 (Herbicidal ratio of 40% or more and less than 70%) | 1 (Herbicidal ratio of 5% or more and less than 20%) | 
CC(C)c1nnc2c(C(=O)Nc3nnnn3C)ccc(C(F)(F)F)n12 [2-003] | 4 (Herbicidal ratio of 70% or more and less than 90%) | 5 (Herbicidal ratio of 90% or more (almost completely withered)) | 3 (Herbicidal ratio of 40% or more and less than 70%) |  | 5 (Herbicidal ratio of 90% or more (almost completely withered)) | 5 (Herbicidal ratio of 90% or more (almost completely withered)) | 5 (Herbicidal ratio of 90% or more (almost completely withered)) | 4 (Herbicidal ratio of 70% or more and less than 90%) |  |  |  |  | 0 (Herbicidal ratio of 5% or less (almost no effect))
Cn1nnnc1NC(=O)c1ccc(C(F)(F)F)n2c(SCC#N)nnc12 [2-086] | 1 (Herbicidal ratio of 5% or more and less than 20%) | 0 (Herbicidal ratio of 5% or less (almost no effect)) | 2 (Herbicidal ratio of 20% or more and less than 40%) | 3 (Herbicidal ratio of 40% or more and less than 70%) | 3 (Herbicidal ratio of 40% or more and less than 70%) | 3 (Herbicidal ratio of 40% or more and less than 70%) | 2 (Herbicidal ratio of 20% or more and less than 40%) | 0 (Herbicidal ratio of 5% or less (almost no effect)) |  |  |  |  | 
CC#Cc1nnc2c(C(=O)Nc3nnnn3C)ccc(C(F)(F)F)n12 [2-106] | 3 (Herbicidal ratio of 40% or more and less than 70%) | 1 (Herbicidal ratio of 5% or more and less than 20%) | 2 (Herbicidal ratio of 20% or more and less than 40%) | 0 (Herbicidal ratio of 5% or less (almost no effect)) |  |  |  |  | 4 (Herbicidal ratio of 70% or more and less than 90%) | 5 (Herbicidal ratio of 90% or more (almost completely withered)) | 3 (Herbicidal ratio of 40% or more and less than 70%) | 2 (Herbicidal ratio of 20% or more and less than 40%) | 
CCCSc1nnc2c(C(=O)Nc3nnnn3C)ccc(C(F)(F)F)n12 [2-068] | 4 (Herbicidal ratio of 70% or more and less than 90%) | 5 (Herbicidal ratio of 90% or more (almost completely withered)) | 5 (Herbicidal ratio of 90% or more (almost completely withered)) | 5 (Herbicidal ratio of 90% or more (almost completely withered)) | 4 (Herbicidal ratio of 70% or more and less than 90%) | 5 (Herbicidal ratio of 90% or more (almost completely withered)) | 5 (Herbicidal ratio of 90% or more (almost completely withered)) | 5 (Herbicidal ratio of 90% or more (almost completely withered)) |  |  |  |  | 
